Assay results reported in paper PMC8218592 (Journal of medicinal chemistry, 2019).
Values belong to the molecule of their own block, whether it stands above or below them.

Tests used:
[1] = biological target: T1, ERAP1 (Homo sapiens, UniProt Q9NZ08); test: ERAP1 L-pNA hydrolysis mode of action kinetics; format: biochemical
[2] = biological target: T2, IRAP (Mus musculus, UniProt Q8C129); test: IRAP L-AMC hydrolysis assay; format: biochemical
T2 sequence (Q8C129 132-1025 limits assumed): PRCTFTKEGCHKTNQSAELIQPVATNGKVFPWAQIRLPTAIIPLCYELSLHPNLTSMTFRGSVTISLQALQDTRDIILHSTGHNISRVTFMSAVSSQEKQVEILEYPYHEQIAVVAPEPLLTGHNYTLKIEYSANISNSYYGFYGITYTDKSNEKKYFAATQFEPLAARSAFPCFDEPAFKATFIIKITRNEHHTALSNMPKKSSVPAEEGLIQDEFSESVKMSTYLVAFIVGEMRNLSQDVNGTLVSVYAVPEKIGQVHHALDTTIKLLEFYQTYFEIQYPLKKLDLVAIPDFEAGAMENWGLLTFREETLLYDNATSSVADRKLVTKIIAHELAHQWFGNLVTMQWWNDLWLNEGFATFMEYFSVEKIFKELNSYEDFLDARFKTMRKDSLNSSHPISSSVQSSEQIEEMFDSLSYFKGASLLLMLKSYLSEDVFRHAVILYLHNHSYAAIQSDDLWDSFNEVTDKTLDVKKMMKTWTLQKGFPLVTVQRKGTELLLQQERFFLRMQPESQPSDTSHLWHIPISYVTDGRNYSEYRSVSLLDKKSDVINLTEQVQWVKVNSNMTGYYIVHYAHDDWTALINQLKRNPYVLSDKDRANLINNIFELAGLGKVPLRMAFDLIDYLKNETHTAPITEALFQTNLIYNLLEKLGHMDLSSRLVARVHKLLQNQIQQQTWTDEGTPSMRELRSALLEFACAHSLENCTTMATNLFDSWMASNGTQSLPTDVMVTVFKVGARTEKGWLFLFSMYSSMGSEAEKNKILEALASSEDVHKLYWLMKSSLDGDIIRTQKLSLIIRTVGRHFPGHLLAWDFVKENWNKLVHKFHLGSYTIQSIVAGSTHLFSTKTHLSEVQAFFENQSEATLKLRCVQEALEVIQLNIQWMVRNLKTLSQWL

[3] = biological target: T1, ERAP1; test: ERAP1 WK10; format: biochemical; conditions: Figure 3B
[4] = tested on: ERAP1 allele II; test: L-AMC hydrolysis assay with ERAP1 allelic variant allele II; format: biochemical, human; conditions: disease-associated allele II (528K)
[5] = tested on: ERAP1 K551A; test: L-AMC activation assay with mutant ERAP1 K551A; format: biochemical, human
[6] = biological target: T1, ERAP1; test: ERAP1 LF9 peptide hydrolysis coupled-enzyme assay, mode of action; format: biochemical; conditions: LF9 peptide substrate
[7] = biological target: T1, ERAP1; test: ERAP1 L-AMC hydrolysis assay; format: biochemical
[8] = tested on: ERAP1 T350A

T1 sequence (Q9NZ08 22-941): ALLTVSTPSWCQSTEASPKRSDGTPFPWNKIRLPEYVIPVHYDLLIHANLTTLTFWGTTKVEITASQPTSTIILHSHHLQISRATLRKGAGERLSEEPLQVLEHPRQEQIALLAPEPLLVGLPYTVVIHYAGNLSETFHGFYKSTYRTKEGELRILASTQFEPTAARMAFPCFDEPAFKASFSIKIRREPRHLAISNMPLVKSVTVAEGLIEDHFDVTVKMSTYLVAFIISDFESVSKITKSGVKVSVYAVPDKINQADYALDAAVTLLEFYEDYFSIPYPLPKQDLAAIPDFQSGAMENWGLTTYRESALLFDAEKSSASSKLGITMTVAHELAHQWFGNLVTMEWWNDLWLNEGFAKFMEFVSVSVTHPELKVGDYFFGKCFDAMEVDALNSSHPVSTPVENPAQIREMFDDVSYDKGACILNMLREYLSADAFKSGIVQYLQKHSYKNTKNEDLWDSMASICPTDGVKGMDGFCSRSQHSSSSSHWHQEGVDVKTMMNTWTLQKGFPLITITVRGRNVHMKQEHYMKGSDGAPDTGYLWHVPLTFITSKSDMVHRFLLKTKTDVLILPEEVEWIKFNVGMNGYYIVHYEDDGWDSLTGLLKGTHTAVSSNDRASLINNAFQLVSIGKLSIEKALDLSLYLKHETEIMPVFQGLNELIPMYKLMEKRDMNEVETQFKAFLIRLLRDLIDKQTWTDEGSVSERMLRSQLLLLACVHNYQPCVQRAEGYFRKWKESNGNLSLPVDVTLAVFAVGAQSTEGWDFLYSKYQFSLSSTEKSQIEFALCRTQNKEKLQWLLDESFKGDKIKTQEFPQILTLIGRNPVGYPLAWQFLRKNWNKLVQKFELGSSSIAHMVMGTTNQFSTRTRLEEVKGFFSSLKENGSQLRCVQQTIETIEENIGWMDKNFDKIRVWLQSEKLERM

Compound: COc1ccc(C(=O)O)cc1S(=O)(=O)Nc1cc(C(F)(F)F)ccc1N1CCCCC1 [Compound 3, 4-Methoxy-3-(N-(2-(piperidin-1-yl)-5-(trifluoromethyl)phenyl)sulfamoyl)benzoic acid]
- increase of L-pNA hydrolysis activity (Vmax/Khalf) ([1]; over the concentration range tested): up to 1.8 fold
- IC50 [2]: > 200 µM
- effect on IRAP activity ([2]; Figure 2C): no detectable effect
- effect on WK10 peptide hydrolysis [3]: inhibited peptide hydrolysis in a dose-dependent manner
- L-AMC AC50 for ERAP1 allele II [4]: sub-micromolar
- effect of mutation on L-AMC AC50 [5]: substantial effect
- mode of inhibition [6]: competitive

- IC50 [2]: > 200 µM
Compound: CC(=O)N1CCN(C(=O)C2(NC(=O)Nc3ccc(F)cc3)CCCCC2)CC1 [Compound 18, 1-(1-(4-Acetylpiperazine-1-carbonyl)cyclohexyl)-3-(4-fluorophenyl)urea]

- IC50 [2]: > 200 µM
Compound: CC(=O)N1CCN(C(=O)C(C)(C)NC(=O)Nc2ccc(C)cc2)CC1 [Compound 22, 1-(1-(4-Acetylpiperazin-1-yl)-2-methyl-1-oxopropan-2-yl)-3-(p-tolyl)urea]

- IC50 [2]: > 200 µM
Compound: CC(=O)N1CCN(C(=O)C2(NC(=O)Nc3ccc(C)cc3)CC2)CC1 [Compound 23, 1-(1-(4-Acetylpiperazine-1-carbonyl)cyclopropyl)-3-(p-tolyl)urea]

- IC50 [2]: > 200 µM
Compound: CC(=O)N1CCN(C(=O)C2(NC(=O)Nc3ccccc3)CCCCC2)CC1 [Compound 19, 1-(1-(4-Acetylpiperazine-1-carbonyl)cyclohexyl)-3-phenylurea]

- IC50 [2]: > 200 µM
- activity in ERAP1 L-AMC hydrolysis assay [7]: no detectable inhibitory activity
Compound: Cc1ccc(NC(=O)NC2(C(=O)N3CCOCC3)CCCCC2)cc1 [Compound 20, 1-(1-(Morpholine-4-carbonyl)cyclohexyl)-3-(p-tolyl)urea]

- IC50 [2]: > 200 µM
- activity in ERAP1 L-AMC hydrolysis assay [7]: no detectable inhibitory activity
Compound: Cc1ccc(NC(=O)NC2(C(=O)N3CCN(c4ccccc4)CC3)CCCCC2)cc1 [Compound 21, 1-(1-(4-Phenylpiperazine-1-carbonyl)cyclohexyl)-3-(p-tolyl)urea]

- IC50 [2]: > 200 µM
Compound: COc1ccc(NC(=O)NC2(C(=O)N3CCN(C(C)=O)CC3)CCCCC2)cc1 [Compound 17, 1-(1-(4-Acetylpiperazine-1-carbonyl)cyclohexyl)-3-(4-methoxyphenyl)urea]

- mode of inhibition ([1]; L-pNA substrate): competitive
Compound: N=C(NCCc1c[nH]c2ccccc12)NS(=O)(=O)c1cc(F)ccc1F [Compound 1, N-(N-(2-(1H-Indol-3-yl)ethyl)carbamimidoyl)-2,5-difluorobenzenesulfonamide]
- effect on WK10 peptide hydrolysis [3]: inhibited peptide hydrolysis in a dose-dependent manner
- change in potency for mutant ERAP1 (L-AMC inhibition) [8]: small reduction in potency

- IC50 [2]: > 200 µM
Compound: CC(=O)N1CCN(C(=O)C2(NC(=O)Nc3ccc(C)cc3)CCCCC2)CC1 [Compound 2, 1-(1-(4-Acetylpiperazine-1-carbonyl)cyclohexyl)-3-(p-tolyl)urea]

- IC50 [2]: > 200 µM
Compound: CC(=O)N1CCN(C(=O)C2(NC(=O)Nc3ccc(Cl)cc3)CCCCC2)CC1 [Compound 16, 1-(1-(4-Acetylpiperazine-1-carbonyl)cyclohexyl)-3-(4-chlorophenyl)urea]
